Columns and labels:
[1] = Metabolic stability in liver microsomes; assay type: in vitro ADME; conditions: human liver microsomes 0.5 mg/mL, 1 μM compound, NADPH 1 mM; read-out: half-life period/(T1/2, min)
Experimental: The test compound was co-incubated with human liver microsomes, and coenzyme NADPH was added to initiate the reaction. At 0, 5, 15, 30 and 60 minutes, 20 μL of incubation solution was taken out and transferred to 200 μL of acetonitrile containing internal standard to stop the reaction. After protein precipitation, centrifugation was performed at 3,700 rpm for 10 minutes and the supernatant was taken. The supernatant was diluted 1:1 with water and analyzed by LC-MS/MS method. According to the elimination half-life of the test compound in the incubation system, the in vitro intrinsic clearance rate was calculated. Midazolam was used as the internal reference compound and incubated for two aliquots in parallel.
The ratio of peak area of the analyte/internal standard (Aanalyte/AIS) was obtained by the instrument. The remaining percentage (% Control) was calculated from the ratio of Aanalyte/AIS in the non-zero time point sample to the zero time point sample. Ln (% Control) versus incubation time was plotted and a linear fit was performed. The clearance constant (k, min^−1), the clearance half-life (T1/2, min) and the in vitro intrinsic clearance rate (CLint, mL·min^−1·mg^−1 proteins) of the test compound were calculated by the following equations.
Cprotein(mg·mL^−1) refers to the concentration of microsomal protein in the incubation system.

[2] = Oral pharmacokinetics in SD rats; assay type: in vivo; conditions: male, rat, plasma, Oral (5 mg/kg)
Experimental: Using SD rats as test animals, the rats were intragastrically administrated with the compound of the present invention. LC/MS/MS method was used to determine the drug concentration in the plasma at different times to study the pharmacokinetic characteristics of the compound of the present invention in rats.
An appropriate amount of the compound to be tested was weighed, and 0.5% sodium carboxymethylcellulose (containing 0.05% Tween80) was added. The mixture was vortexed, and sonicated so that the solid was ultrasonically dispersed uniformly to obtain a suspension. 100 μL×2 of the filtered preparation were aspirated, and placed in 1.5-mL EP tubes, stored at […]. The concentration of the preparation was 0.5 mg/mL.
Nine healthy adult male SD rats were fasted overnight and then intragastrically administered (dosage of administration was 5 mg/kg), and fed 4 hours after administration.
About 0.2 mL of blood was collected from the jugular vein at 0.083 hours, 0.25 hours, 0.5 hours, 1 hour, 2 hours, 4 hours, 8 hours, 12 hours, and 24 hours after administration, and heparin sodium was used for anticoagulation. The collected blood samples were placed on ice and centrifuged to separate the plasma (centrifugation conditions: 1500 g, 10 minutes). The collected plasma was stored at −40 to −20° C. before analysis. The LC-MS/MS method was used to determine the content of the test compound in the plasma of SD rats after intragastric administration of different compounds.

[3] = test system: CT26 mouse colon cancer cell subcutaneously transplanted tumor; assay: Growth inhibition of CT26 mouse colon cancer subcutaneously transplanted tumor model, alone and combined with PD-L1 monoclonal antibody; assay type: in vivo, BALB/c mice; conditions: 21st day after administration, Example 2 60 mg/kg gavage once a day, Anti-PD-L1 200 μg each i.p. once every 3 days, 4 times; for IR(%), tumor inhibition percentage: by tumor weight
Experimental: The anti-tumor effect of the combination of the compound of Example 2 and PD-L1 monoclonal antibody in CT26 mouse colon cancer cell subcutaneously transplanted tumor model was evaluated.
An appropriate amount of the compound of Example 2 was weighed into a centrifuge tube, and 5% NMP 95% PEG400 was added. The mixture was vortexed to a fully soluble solution with a concentration of 6 mg/mL, which was prepared before immediate use.
Recombinant anti-PD-L1 whole mouse monoclonal antibody (InVivoMAb anti-mouse PD-L1 (B7-H1), purchased from Bioxcell, Clone 10F.9G2, catalog number: BE0101, batch number: 720619F1) was diluted with PBS so that the concentration was 1 mg/mL, which was prepared before immediate use.
BALB/c mice, female, 7-8 weeks (the age of mice at the time of tumor cell inoculation), weight of 18.4-19.1 g, 9 mice in each group, purchased from Zhejiang Weitong Lihua Laboratory Animal Technology Co., Ltd., license number: SOCK (Zhejiang) 2019-0001.
CT26 mouse colon cancer cells were cultured in RPMI-1640 culture medium containing 10% fetal bovine serum, 100 U/mL penicillin and 100 μg/mL streptomycin. CT26 cells in the exponential growth phase were collected and resuspended in PBS to a suitable concentration for subcutaneous tumor inoculation in mice.
Female BALB/c mice were subcutaneously inoculated with 2.5×10^5 CT26 cells on the back. When the average tumor volume was about 127 mm^3, they were randomly grouped according to the size of the tumor. They were divided into 4 groups with each group of 9 animals, and the day of grouping was defined as day 0.
After tumor inoculation, routine monitoring included the effects of tumor growth and treatment on the normal behavior of animals. The specific content included the activity of the experimental animal, food and water consumption, weight gain or loss, abnormal conditions of eyes, coat and others. The tumor volume was weighed and measured twice a week. The administration period was 21 days. On the 21st day, the mice were weighed and the tumor volume was measured. The next day after the tumor volume was measured, the mice were sacrificed and tumor masses were taken and weighed. The tumor volume (TV), relative tumor volume (RTV), relative tumor growth rate (T/C), tumor inhibition percentage (IR) and relative tumor inhibition rate (TGI) were calculated, and statistical testing was performed. The calculation formulas were as follows:
(1) TV=1/2×a×b^2, where a and b represent the length and width of the tumor respectively;
(2) RTV=Vt/V0, where V0 is the tumor volume measured during administration in grouping (i.e. d0), and Vt is the tumor volume during each measurement;

recombinant human PI3Kα = recombinant human PI3Kα (Homo sapiens (Human), UniProt P42336); assay: Inhibitory activity on PI3K kinase (ADP-Glo Kinase Assay)
From the text: (§1) The following method is used to determine the degree of inhibition of recombinant human PI3Kα, PI3Kβ, PI3Kγ and PI3Kδ kinase activity by the compounds of the present invention under in vitro conditions. Promega's ADP-Glo Kinase Assay Kit (Cat. No. V9102) was used in this method. The above kit was a luminescence kinase detection kit, which was used to detect the ADP content produced by the kinase reaction. The ADP content was positively correlated with the kinase activity. By measuring the ADP content, the inhibition of the compound on the activity of PI3Kα, PI3Kβ, PI3Kγ and PI3Kδ kinases was reflected. […] Recombinant human PI3Kα, PI3Kγ, and PI3Kδ were purchased from Invitrogen, and PI3Kβ was purchased from Promega (category numbers were PI3Kα: PV4788; PI3Kβ: V1751; PI3Kγ: PV4786 and PI3Kδ: PV6451 separately).

recombinant human PI3Kδ = recombinant human PI3Kδ (Homo sapiens (Human), UniProt O00329); assay: as above
recombinant human PI3Kδ, sequence (O00329 whole entry): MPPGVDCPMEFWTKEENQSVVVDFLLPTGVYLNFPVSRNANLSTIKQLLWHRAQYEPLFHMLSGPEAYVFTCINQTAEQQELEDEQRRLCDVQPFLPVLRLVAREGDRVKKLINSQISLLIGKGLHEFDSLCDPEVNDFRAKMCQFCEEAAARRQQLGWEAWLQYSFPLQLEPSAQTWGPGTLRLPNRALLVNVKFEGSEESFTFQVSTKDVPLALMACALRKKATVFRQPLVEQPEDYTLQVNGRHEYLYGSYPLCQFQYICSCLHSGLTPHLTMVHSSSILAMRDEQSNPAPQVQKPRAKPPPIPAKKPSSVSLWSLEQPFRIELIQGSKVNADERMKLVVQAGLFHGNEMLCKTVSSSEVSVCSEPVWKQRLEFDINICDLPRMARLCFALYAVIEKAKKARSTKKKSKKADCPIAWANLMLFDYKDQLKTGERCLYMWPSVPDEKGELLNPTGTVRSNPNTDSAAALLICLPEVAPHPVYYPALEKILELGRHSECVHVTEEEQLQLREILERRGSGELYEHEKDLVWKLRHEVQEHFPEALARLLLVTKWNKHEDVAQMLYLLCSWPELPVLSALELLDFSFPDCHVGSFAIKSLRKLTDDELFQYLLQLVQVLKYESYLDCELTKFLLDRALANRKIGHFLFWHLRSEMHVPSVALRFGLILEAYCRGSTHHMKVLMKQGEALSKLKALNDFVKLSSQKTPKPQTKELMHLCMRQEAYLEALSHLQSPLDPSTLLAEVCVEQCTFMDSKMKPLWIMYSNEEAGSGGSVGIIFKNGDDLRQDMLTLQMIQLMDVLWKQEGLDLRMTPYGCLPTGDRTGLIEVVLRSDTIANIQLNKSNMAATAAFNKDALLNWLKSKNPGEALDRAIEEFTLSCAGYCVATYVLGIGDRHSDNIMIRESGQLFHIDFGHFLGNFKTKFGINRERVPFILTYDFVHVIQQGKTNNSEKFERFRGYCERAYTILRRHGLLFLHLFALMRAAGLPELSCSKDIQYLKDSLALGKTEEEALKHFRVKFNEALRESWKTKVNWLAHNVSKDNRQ
recombinant human PI3Kδ, sequence (P27986 whole entry partner): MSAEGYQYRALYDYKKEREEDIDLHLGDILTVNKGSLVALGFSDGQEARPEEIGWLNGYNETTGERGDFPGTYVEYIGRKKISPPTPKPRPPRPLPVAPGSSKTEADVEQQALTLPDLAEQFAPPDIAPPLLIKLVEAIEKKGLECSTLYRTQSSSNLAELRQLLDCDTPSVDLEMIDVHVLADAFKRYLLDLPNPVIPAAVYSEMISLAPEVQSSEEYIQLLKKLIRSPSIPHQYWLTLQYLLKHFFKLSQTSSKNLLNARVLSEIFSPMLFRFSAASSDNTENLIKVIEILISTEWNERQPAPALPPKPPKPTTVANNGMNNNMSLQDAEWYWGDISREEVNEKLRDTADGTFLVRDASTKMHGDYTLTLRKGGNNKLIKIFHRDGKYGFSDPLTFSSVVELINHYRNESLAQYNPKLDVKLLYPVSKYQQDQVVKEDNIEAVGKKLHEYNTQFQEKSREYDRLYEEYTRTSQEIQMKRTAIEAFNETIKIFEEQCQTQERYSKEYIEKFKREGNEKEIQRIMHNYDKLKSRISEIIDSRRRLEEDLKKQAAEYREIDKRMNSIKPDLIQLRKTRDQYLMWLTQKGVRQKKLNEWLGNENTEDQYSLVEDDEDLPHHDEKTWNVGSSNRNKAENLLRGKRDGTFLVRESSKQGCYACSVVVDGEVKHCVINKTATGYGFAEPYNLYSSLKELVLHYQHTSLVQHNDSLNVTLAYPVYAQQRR
From the text: as §1

recombinant human PI3Kα, sequence (P42336 whole entry): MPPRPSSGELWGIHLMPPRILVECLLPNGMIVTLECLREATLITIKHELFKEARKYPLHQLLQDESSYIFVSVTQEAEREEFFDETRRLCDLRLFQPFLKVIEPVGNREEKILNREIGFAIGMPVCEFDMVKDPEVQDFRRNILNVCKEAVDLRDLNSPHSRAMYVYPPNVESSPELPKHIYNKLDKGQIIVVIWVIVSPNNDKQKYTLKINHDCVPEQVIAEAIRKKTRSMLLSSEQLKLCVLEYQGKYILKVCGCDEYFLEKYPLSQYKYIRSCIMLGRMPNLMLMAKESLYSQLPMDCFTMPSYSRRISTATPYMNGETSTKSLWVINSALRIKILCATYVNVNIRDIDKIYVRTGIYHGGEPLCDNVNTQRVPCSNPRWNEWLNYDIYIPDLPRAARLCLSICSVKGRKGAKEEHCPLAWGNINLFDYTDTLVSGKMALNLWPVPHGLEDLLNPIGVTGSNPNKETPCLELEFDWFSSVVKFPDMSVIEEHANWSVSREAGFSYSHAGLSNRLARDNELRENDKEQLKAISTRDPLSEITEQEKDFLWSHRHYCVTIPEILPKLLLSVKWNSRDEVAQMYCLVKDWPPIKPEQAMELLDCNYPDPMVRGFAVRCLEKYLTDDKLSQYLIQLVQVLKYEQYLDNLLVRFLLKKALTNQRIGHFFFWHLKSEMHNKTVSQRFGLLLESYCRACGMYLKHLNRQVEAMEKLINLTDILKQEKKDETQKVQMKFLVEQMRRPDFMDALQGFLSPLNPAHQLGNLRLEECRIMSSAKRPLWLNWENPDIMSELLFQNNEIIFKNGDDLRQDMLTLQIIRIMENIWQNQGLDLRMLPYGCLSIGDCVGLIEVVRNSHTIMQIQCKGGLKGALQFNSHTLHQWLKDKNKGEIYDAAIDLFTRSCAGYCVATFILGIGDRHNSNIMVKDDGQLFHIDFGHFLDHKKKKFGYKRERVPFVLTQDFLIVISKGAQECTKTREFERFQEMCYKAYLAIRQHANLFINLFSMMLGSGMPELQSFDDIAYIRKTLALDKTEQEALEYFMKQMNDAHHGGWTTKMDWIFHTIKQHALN
recombinant human PI3Kα, sequence (P27986 whole entry partner): as the sequence (P27986 whole entry partner) above

- half-life at 1 μM [1]: 233 min
- AUC(0-inf) ([2]; read-out: Area under the curve AUC0-∞): 11000 ng·h/mL
- bioavailability ([2]; read-out: Bioavailability F): 66%
- half-life ([2]; read-out: Half-life period T1/2 (converted)): 4.1 h
- Cmax ([2]; read-out: Plasma concentration Cmax): 1160 ng/mL
- IC50 (recombinant human PI3Kα): 215 nM
- IC50 (recombinant human PI3Kδ): 191 nM
Compound: C[C@H](NC(=O)c1c(N)nn2cccnc12)c1nc2cccc(C#Cc3cnn(C4CC4)c3)c2c(=O)n1-c1ccccc1 [Example 2, (S)-2-amino-N-(1-(5-((1-cyclopropyl-1H-pyrazol-4-yl)ethynyl)-4-oxo-3-phenyl-3,4-dihydroquinazolin-2-yl)ethyl)pyrazolo[1,5-a]pyrimidine-3-carboxamide]
- RTV (x ± S), relative tumor volume [3]: 5.47 ± 1.05
- TGI (%), relative tumor inhibition rate [3]: 51.2%
- Tumor weight (g) (x ± S) [3]: 0.5942 ± 0.1730 g
- TV (x ± S), tumor volume ([3]; in mm³ (unit assumed)): 723.47 ± 159.50
- IR(%), tumor inhibition percentage ([3]; listed as Compound of Example 2): 52.1%
- IR(%), tumor inhibition percentage ([3]; listed as compound of Example 2): 52.1%

Reference: patent US12447151B2, “Alkyne derivative, preparation method for same, and uses thereof” (ZHEJIANG HISUN PHARMACEUTICAL CO., LTD., priority 2019, dated 2025)
